Here are results for one compound from patent US20070260088A1, “Calcium Trifluoroacetate for Preparing Antiangiogenetic Medicaments” (priority 2004, published 2007).

Molecules are shown by their SMILES.

Data set [1] deals with VEGF-induced angiogenesis in Matrigel plugs. Description: murine model of angiogenesis induced by subcutaneous implant of Matrigel containing VEGF. In kind it is in vivo, mouse. The conditions noted are these: for reduction in angiogenesis (morphometric analysis, percentage of area covered by vessels): VEGF 40 ng/ml in Matrigel, plugs removed after 7 days, vs VEGF alone. As to the method:
The effect of calcium trifluoroacetate in angiogenesis was evidenced in a murine model of angiogenesis induced by a subcutaneous implant of Matrigel. Matrigel is liquid at 4° C. and solid at 37° C., so that a pro-angiogenetic stimulus can be mixed with Matrigel and inoculated. In this protocol, the selected angiogenetic factor was […], added to the Matrigel together with 16 U/ml heparin, as described in literature (Bussolati B, Altered angiogenesis and survival in human tumor-derived endothelial cells. FASEB J. 2003; Bussolati B, Vascular endothelial growth factor receptor-1 modulates vascular endothelial growth factor-mediated angiogenesis via nitric oxide. Am J Pathol. 2001).
Calcium trifluoroacetate was administered intraperitoneally 30 minutes before Matrigel, then on alternate days (day 2, 4, 6), at a dose of 2 or 4 μg/mouse (0.2 mg/Kg). After 7 days, the animals were killed and the Matrigel plugs were removed for histological examination. Angiogenesis was evaluated by computer assisted morphometric analysis of the percentage of area covered by vessels.
This strong antiangiogenic effect could already be observed macroscopically and confirmed histologically.

Data set [2] concerns endothelium proliferation. The data set can be described thus: endothelium proliferation. In kind it is cell-based.
For the next data set, the system named is endothelial cells. The data set can be described thus: effect of endothelial growth factors on calcium entrance into single endothelial cells. The class given is cell-based.
The test system of another data set is tumor growth. The conditions noted are these: disclosed in EP 1 423 131; cited from earlier work.
Another data set concerns solid tumor cells. The following applies: disclosed in EP 1 423 131; cited from earlier work.

On to `O=C([O-])C(F)(F)F.O=C([O-])C(F)(F)F.[Ca+2]` [calcium trifluoroacetate], for which the “reduction in angiogenesis (morphometric analysis, percentage of area covered by vessels)” value in data set [1] (2 μg/mouse intraperitoneally on alternate days) was “above 40%”; in data set [1] (4 μg/mouse intraperitoneally on alternate days) it was 80%. The “effect of VEGF on angiogenesis in Matrigel plugs (macroscopic and histological)” value in data set [1] (mice treated with calcium trifluoroacetate, VEGF 40 ng/ml) is reported as “dramatically reduced”. The “action on endothelium proliferation” value in data set [2] is listed as “evident inhibitory action”. Further, the “effect of endothelial growth factors on calcium entrance into single endothelial cells” value in the data set with endothelial cells was “able to block, at least partly”. Moreover, the “tumor growth in animal experimental models” value in the data set on tumor growth is “inhibit tumor growth”. Moreover, the “in vitro cytotoxic activity on solid tumor cells” value with solid tumor cells was “cytotoxic activity”.
